Experimental data taken from patent US7964723B2, “And practical process for exclusively producing (S)-9-fluoro-3-methyl-10-(4-methyl-1-piperazinyl)-7-oxo-2,3-dihydro-7H-pyrido-[1,2,3,de][1,4]benzoxazine-6-carboxylic acid hemihydrate” (Apeloa-Kangyu, priority 2008, dated 2011).
Like-named read-outs stand apart in the source and are kept apart here.

Assays:
[1] = loss of crystal water on drying; type: physicochemical; details: 50° C. under vacuum of around 60 mm/Hg for a couple of hours; theoretical water 2.43%
From the text: Levofloxacin hemihydrate contains a theoretical amount of water of 2.43%.

[2] = hemihydrate compared with monohydrate; cited from earlier work
[3] = cited from earlier work
[4] = test system: gram-positive and gram-negative bacteria; details: cited from earlier work

SMILES	water lost by drying [1]	phase stability as a drug substance [2]	drying temperature at which crystal water is lost (anhydrous form results) ([3]; under atmospheric pressure)	drying temperature at which crystal water is lost (anhydrous form results) ([3]; under reduced pressure)	potency in inhibiting the multiplication of bacteria relative to its (+)-enantiomer ([4]; gram-positive and gram-negative bacteria, versus (+)-enantiomer)	activity relative to its racemate, ofloxacine ([4]; versus racemate)
C[C@H]1COc2c(N3CCN(C)CC3)c(F)cc3c(=O)c(C(=O)O)cn1c23 [Levofloxacin hemihydrate, (−)-(S)-9-fluoro-3-methyl-10-(4-methyl-1-piperazinyl)-7-oxo-2,3-dihydro-7H-pyrido-[1,2,3-de] [1,4] benzoxazine-6-carboxylic acid hemihydrate]	0.20-0.30%	superior to the monohydrate	around 70 °C	around 60 °C	–	–
C[C@H]1COc2c(N3CCN(C)CC3)c(F)cc3c(=O)c(C(=O)O)cn1c23 [Levofloxacin, (S)-9-fluoro-3-methyl-10-(4-methyl-1-piperazinyl)-7-oxo-2,3-dihydro-7H-pyrido-[1,2,3-de][1,4]benzoxazine-6-carboxylic acid]	–	–	–	–	8-128 times	approximately 2 times
